# Assay results published in US20120165332A1, “SULFONAMIDES AND SULFAMIDES AS ZAP-70 INHIBITORS” (Cellzome Limited, priority 2009, published 2012).
# pIC50: −log10 of the molar value.
# Target: T1, ZAP-70 (Homo sapiens, UniProt P43403)
# T1 construct: endogenous in cells; host or cells: cell lysate
# T1 sequence (P43403 1-619): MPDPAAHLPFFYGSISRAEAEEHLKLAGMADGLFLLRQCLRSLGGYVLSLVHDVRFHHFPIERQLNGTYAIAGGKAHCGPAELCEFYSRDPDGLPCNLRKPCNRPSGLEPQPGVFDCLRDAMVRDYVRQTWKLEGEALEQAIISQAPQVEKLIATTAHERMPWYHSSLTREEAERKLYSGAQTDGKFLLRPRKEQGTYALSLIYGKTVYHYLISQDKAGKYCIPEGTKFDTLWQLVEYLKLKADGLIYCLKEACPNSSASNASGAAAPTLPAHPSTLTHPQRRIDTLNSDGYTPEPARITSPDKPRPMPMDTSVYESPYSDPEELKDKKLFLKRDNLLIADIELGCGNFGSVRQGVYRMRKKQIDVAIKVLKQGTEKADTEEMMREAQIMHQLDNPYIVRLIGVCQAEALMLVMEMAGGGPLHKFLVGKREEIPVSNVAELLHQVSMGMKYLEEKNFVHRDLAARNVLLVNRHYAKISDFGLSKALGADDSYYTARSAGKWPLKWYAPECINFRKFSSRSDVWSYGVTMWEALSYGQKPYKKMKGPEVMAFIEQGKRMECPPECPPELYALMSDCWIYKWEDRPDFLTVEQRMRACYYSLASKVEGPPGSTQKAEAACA
# Test: ZAP-70 kinobeads assay
# Format: binding
# Settings: cell lysate, affinity matrix with immobilized aminopyrido-pyrimidine ligand 24, dot blot detection
# Description: The compounds of the present invention as described in the previous examples can be tested in the ZAP-70 kinobeads assay as described (EP-A 1862802 and WO-A 2007/137867). Briefly, test compounds (at various concentrations) and the affinity matrix with the immobilized aminopyrido-pyrimidine ligand 24 are added to cell lysate aliquots and allowed to bind to the proteins in the lysate sample. After the incubation time the beads with captured proteins are separated from the lysate. Bound proteins are then eluted and the presence ZAP-70 is detected and quantified using a specific antibody in a dot blot procedure and the Odyssey infrared detection system.
row,pIC50,Structure (SMILES)
1,≥ 7.00,"COc1ccc(Nc2nc(Nc3cc(OC)c(OC)c(OC)c3)ncc2Cl)c(N(CCCNC=O)S(C)(=O)=O)c1 [Example 12, N-(3-(N-(2-(5-chloro-2-(3,4,5-trimethoxyphenylamino)pyrimidin-4-ylamino)-5-methoxyphenyl)methylsulfonamido)propyl)formamide]"
2,5.00 to 6.00,"COc1cc(Nc2ncc(F)c(Nc3ccccc3N(CCN3CCCC3)S(C)(=O)=O)n2)cc(OC)c1OC [Example 33, N-(2-(5-fluoro-2-(3,4,5-trimethoxyphenylamino)pyrimidin-4-ylamino)phenyl)-N-(2-(pyrrolidin-1-yl)ethyl)methanesulfonamide]"
3,5.00 to 6.00,COc1ccc(Nc2nc(Nc3ccnn3C)ncc2Cl)c(N(C[C@H]2CCC(=O)N2)S(C)(=O)=O)c1 [Example 31]
4,5.00 to 6.00,"COc1cc(Nc2ncc(F)c(Nc3cccc(C)c3N(CCCC(N)=O)S(C)(=O)=O)n2)cc(OC)c1OC [Example 25, 4-(N-(2-(5-fluoro-2-(3,4,5-trimethoxyphenylamino)pyrimidin-4-ylamino)-6-methylphenyl)methylsulfonamido)butanamide]"
5,6.00 to 7.00,"COc1ccc(Nc2nc(Nc3cc(F)c(OC)cc3OC)ncc2Cl)c(N(CCN)S(C)(=O)=O)c1 [Example 10, N-(2-aminoethyl)-N-(2-(5-chloro-2-(5-fluoro-2,4-dimethoxyphenylamino)pyrimidin-4-ylamino)-5-methoxyphenyl)methanesulfonamide]"
6,≥ 7.00,COc1ccc(Nc2nc(Nc3cc(OC)c(OC)c(OC)c3)ncc2Cl)c(N(CCNC=O)S(C)(=O)=O)c1 [Example 8]
7,5.00 to 6.00,"COc1cc(Nc2ncc(F)c(Nc3cccc(C)c3N(CCC(N)=O)S(C)(=O)=O)n2)cc(OC)c1OC [Example 23, 3-(N-(2-(5-fluoro-2-(3,4,5-trimethoxyphenylamino)pyrimidin-4-ylamino)-6-methylphenyl)methylsulfonamido)propanamide]"
8,6.00 to 7.00,"COc1cc(Nc2ncc(F)c(Nc3cccc(C)c3N(CCC#N)S(C)(=O)=O)n2)cc(OC)c1OC [Example 16, N-(2-cyanoethyl)-N-(2-(5-fluoro-2-(3,4,5-trimethoxyphenylamino)pyrimidin-4-ylamino)-6-methylphenyl)methanesulfonamide]"
9,≥ 7.00,"COc1ccc(Nc2nc(Nc3cc(OC)c(OC)c(OC)c3)ncc2Cl)c(N(C[C@@H]2CCC(=O)N2)S(C)(=O)=O)c1 [Example 4, (S)—N-(2-(5-chloro-2-(3,4,5-trimethoxyphenylamino)pyrimidin-4-ylamino)-5-methoxyphenyl)-N-((5-oxopyrrolidin-2-yl)methyl)methanesulfonamide]"
10,≥ 7.00,"COc1ccc(Nc2nc(Nc3cc(OC)c(OC)c(OC)c3)ncc2Cl)c(N(CC#N)S(C)(=O)=O)c1 [Example 6, N-(2-(5-chloro-2-(3,4,5-trimethoxyphenylamino)pyrimidin-4-ylamino)-5-methoxyphenyl)-N-(cyanomethyl)methanesulfonamide]"
11,5.00 to 6.00,"CS(=O)(=O)N(CCN1CCOCC1)c1ccccc1Nc1nc(Nc2cccc(O)c2)ncc1F [Example 32, N-(2-(5-fluoro-2-(3-hydroxyphenylamino)pyrimidin-4-ylamino)phenyl)-N-(2-morpholinoethyl)methanesulfonamide]"
12,≥ 7.00,"COc1ccc(Nc2nc(Nc3cc(OC)c(OC)cc3C)ncc2Cl)c(N(CCN)S(C)(=O)=O)c1 [Example 9, N-(2-aminoethyl)-N-(2-(5-chloro-2-(4,5-dimethoxy-2-methylphenylamino)pyrimidin-4-ylamino)-5-methoxyphenyl)methanesulfonamide]"
13,5.00 to 6.00,"COc1ccc(Nc2nc(Nc3cc(OC)c(OC)c(OC)c3)ncc2Cl)c(N(CN2CCCC2=O)S(C)(=O)=O)c1 [Example 3, N-(2-(5-chloro-2-(3,4,5-trimethoxyphenylamino)pyrimidin-4-ylamino)-5-methoxyphenyl)-N-((2-oxopyrrolidin-1-yl)methyl)methanesulfonamide]"
14,5.00 to 6.00,"COC(=O)CCN(c1c(C)cccc1Nc1nc(Nc2cc(OC)c(OC)c(OC)c2)ncc1F)S(C)(=O)=O [Example 22, Methyl 3-(N-(2-(5-fluoro-2-(3,4,5-trimethoxyphenylamino)pyrimidin-4-ylamino)-6-methylphenyl)methylsulfonamido)propanoate]"
15,5.00 to 6.00,"COc1cc(Nc2ncc(F)c(Nc3cccc(C)c3N(CC(N)=O)S(C)(=O)=O)n2)cc(OC)c1OC [Example 14, 2-(N-(2-(5-fluoro-2-(3,4,5-trimethoxyphenylamino)pyrimidin-4-ylamino)-6-methylphenyl)methylsulfonamido) acetamide]"
16,5.00 to 6.00,"COc1cc(Nc2ncc(F)c(Nc3cccc(C)c3N(CC#N)S(C)(=O)=O)n2)cc(OC)c1OC [Example 17, N-(cyanomethyl)-N-(2-(5-fluoro-2-(3,4,5-trimethoxyphenylamino)pyrimidin-4-ylamino)-6-methylphenyl)methanesulfonamide]"
17,≥ 7.00,"COc1cc(Nc2ncc(Cl)c(Nc3ccccc3N(CCNC=O)S(C)(=O)=O)n2)cc(OC)c1OC [Example 2, N-(2-(N-(2-(5-chloro-2-(3,4,5-trimethoxyphenylamino)pyrimidin-4-ylamino)phenyl)methylsulfonamido)ethyl)formamide]"
18,5.00 to 6.00,"COc1ccc(Nc2nc(Nc3cc(OC)c(OC)c(OC)c3)ncc2Cl)c(N(C[C@H]2CCC(=O)N2)S(C)(=O)=O)c1 [Example 5, (R)—N-(2-(5-chloro-2-(3,4,5-trimethoxyphenylamino)pyrimidin-4-ylamino)-5-methoxyphenyl)-N-((5-oxopyrrolidin-2-yl)methyl)methanesulfonamide]"
19,6.00 to 7.00,"COc1cc(Nc2ncc(F)c(Nc3cccc(C)c3N(CCCNC=O)S(C)(=O)=O)n2)cc(OC)c1OC [Example 28, N-(3-(N-(2-(5-fluoro-2-(3,4,5-trimethoxyphenylamino)pyrimidin-4-ylamino)-6-methylphenyl)methylsulfonamido)propyl)formamide]"
20,≥ 7.00,"COc1ccc(Nc2nc(Nc3cc(OC)c(OC)c(OC)c3)ncc2Cl)c(N(CCN)S(C)(=O)=O)c1 [Example 7, N-(2-aminoethyl)-N-(2-(5-chloro-2-(3,4,5-trimethoxyphenylamino)pyrimidin-4-ylamino)-5-methoxyphenyl)methanesulfonamide]"
21,6.00 to 7.00,"COc1cc(Nc2ncc(F)c(Nc3cccc(C)c3N(CCCNC(C)=O)S(C)(=O)=O)n2)cc(OC)c1OC [Example 27, N-(3-(N-(2-(5-fluoro-2-(3,4,5-trimethoxyphenylamino)pyrimidin-4-ylamino)-6-methylphenyl)methylsulfonamido)propyl)acetamide]"
22,6.00 to 7.00,"COc1ccc(Nc2nc(Nc3cc(OC)c(OC)c(OC)c3)ncc2Cl)c(N(Cc2cnc[nH]2)S(C)(=O)=O)c1 [Example 1, N-((1H-imidazol-5-yl)methyl)-N-(2-(5-chloro-2-(3,4,5-trimethoxyphenylamino)pyrimidin-4-ylamino)-5-methoxyphenyl)methanesulfonamide]"
23,5.00 to 6.00,"COc1cc(Nc2ncc(F)c(Nc3cccc(C)c3N(CCCC#N)S(C)(=O)=O)n2)cc(OC)c1OC [Example 24, N-(3-cyanopropyl)-N-(2-(5-fluoro-2-(3,4,5-trimethoxyphenylamino)pyrimidin-4-ylamino)-6-methylphenyl)methanesulfonamide]"
24,5.00 to 6.00,COCCN(c1c(C)cccc1Nc1nc(Nc2cc(OC)c(OC)c(OC)c2)ncc1F)S(C)(=O)=O [Example 13]
25,6.00 to 7.00,"COc1cc(Nc2ncc(F)c(Nc3cccc(C)c3N(CCNC=O)S(C)(=O)=O)n2)cc(OC)c1OC [Example 20, N-(2-(N-(2-(5-fluoro-2-(3,4,5-trimethoxyphenylamino)pyrimidin-4-ylamino)-6-methylphenyl)methylsulfonamido)ethyl)formamide]"
26,6.00 to 7.00,"COc1cc(Nc2ncc(F)c(Nc3cccc(C)c3N(CCCN)S(C)(=O)=O)n2)cc(OC)c1OC [Example 21, N-(3-aminopropyl)-N-(2-(5-fluoro-2-(3,4,5-trimethoxyphenylamino)pyrimidin-4-ylamino)-6-methylphenyl)methanesulfonamide]"
27,≥ 7.00,"COc1ccc(Nc2nc(Nc3cc(OC)c(OC)c(OC)c3)ncc2Cl)c(N(CCCNC(C)=O)S(C)(=O)=O)c1 [Example 29, N-(3-(N-(2-(5-chloro-2-(3,4,5-trimethoxyphenylamino)pyrimidin-4-ylamino)-5-methoxyphenyl)methylsulfonamido)propyl)acetamide]"
28,5.00 to 6.00,"COc1cc(Nc2ncc(F)c(Nc3cccc(C)c3N(CCO)S(C)(=O)=O)n2)cc(OC)c1OC [Example 15, N-(2-(5-fluoro-2-(3,4,5-trimethoxyphenylamino)pyrimidin-4-ylamino)-6-methylphenyl)-N-(2-hydroxyethyl)methanesulfonamide]"
29,6.00 to 7.00,"COc1cc(Nc2ncc(F)c(Nc3cccc(C)c3N(CCNC(C)=O)S(C)(=O)=O)n2)cc(OC)c1OC [Example 26, N-(2-(N-(2-(5-fluoro-2-(3,4,5-trimethoxyphenylamino)pyrimidin-4-ylamino)-6-methylphenyl)methylsulfonamido)ethyl)acetamide]"
